{"source": "patent US10980739B2", "about": "“Treatment of a disease of the gastrointestinal tract with a chemokine/chemokine receptor inhibitor” (Progenity, Inc., priority 2016, dated 2021)", "experiment": "Tacrolimus tissue pharmacokinetics, oral versus intra-cecal ingestible device delivery", "type": "in vivo, Yorkshire-Cross farm swine", "details": "swine, intra-cecal ingestible device vs oral, 12 hours post-dose; FIG. 76", "method": "No further randomization procedure was employed.\nAnimals in Group 1 received an ingestible device containing 0.8 mL of vehicle solution (80% alcohol, 20% HCO-60). Animals in Group 2 received orally […] liquid formulation of tacrolimus at 4 mg/0.8 mL per animal (Prograf: 5 mg/mL). Animals in Group 3 received intra-cecally an ingestible device containing tacrolimus at 1 mg in 0.8 mL per ingestible device. Animals in Group 4 received intra-cecally an ingestible device containing tacrolimus at 2 mg in 0.8 mL per ingestible device. Animals in Group 5 received intra-cecally an ingestible device containing tacrolimus at 4 mg in 0.8 mL per ingestible device. […]\nApproximately 200˜400 mg of rectal content were collected, if available, with a fecal swab (Copan Diagnostics Nylon Flocked Dry Swabs, 502CS01). The fecal swab was pre-weighed and weighed after collection in the collection tube (Sterile Tube and Cap No Media, PFPM913S), and the sample weight was recorded. […]\nFor tissue necropsy, small intestine fluid and cecal fluid were collected separately from all the animals into two separate square plastic bottles, and stored at −20° C. The length and diameter of the cecum and the colon was measured from one animal in each group and recorded for reference. […] All samples were weighed, and the tissue sample weights were recorded. […]"}
{"smiles": "C=CC[C@@H]1/C=C(\\C)C[C@H](C)C[C@H](OC)[C@H]2O[C@@](O)(C(=O)C(=O)N3CCCC[C@H]3C(=O)O[C@H](/C(C)=C/[C@@H]3CC[C@@H](O)[C@H](OC)C3)[C@H](C)[C@@H](O)CC1=O)[C@H](C)C[C@@H]2OC", "note": "[tacrolimus]", "values": [{"measurement": "mean concentration of tacrolimus in the cecum tissue and the proximate colon tissue", "value": "higher"}]}
